Eleven compounds from patent publication US20250041429A1, “COMPOUND HAVING BTK PROTEIN DEGRADATION ACTIVITY, AND MEDICAL USES THEREOF” (UBIX THERAPEUTICS, INC., priority 2021, published 2025) can be followed below.

This assay concerns the target T1, BTK protein (Homo sapiens, UniProt Q06187).
T1 construct: endogenous in cells; host or cells: TMD-8 cells
Put plainly: Measurement of BTK protein degradation ability in TMD-8 cells (Western blotting). Format: cell-based. The following applies: harvested after 24 hours; for BTK degradation (%) 10 nM: compound 10 nM; for BTK degradation (%) 100 nM: compound 100 nM; for BTK degradation (%) 1 nM: compound 1 nM. As for the experimental part: TMD-8, RAMOS, or 293T BTK MUT (C481S) cells were treated with the synthesized compounds, and then the amount of BTK protein present in the cells was measured using Western blotting detection. The protocol for the experiment conducted using TMD-8 cells was as follows:
[Culture] TMD-8 cells were resuspended in RPMI1640 MEDIUM (Hyclone, SH30027.01), 10% FBS (Hyclone, SV30207.02), and 1% Penicillin-streptomycin (Welgene, LS 202-02) media, and 1 mL of this suspension was seeded in a 12-well plate at a cell concentration of 1×10^6/mL.
[Compound treatment] The 12-well plate was treated as follows: The 10 mM stock was serially diluted 1/10 with DMSO (3 μL+27 μL DMSO), and cells were treated with compounds at final concentrations of 0.1, 1, 10 μM or 0.0001, 0.001, 0.01, 0.1 μM, and harvested after 24 hours. In the negative control group, DMSO diluted 1/10 was added to the media. (3 μL DMSO+27 μL media)
[Harvest] Each well was pipetted with a 1 mL pipette, collected in a 1.5 mL microtube, and centrifuged (500 g, 5 min, 4° C.). After removing the supernatant, it was washed with PBS and centrifuged again (500 g, 5 min, 4° C.). The supernatant was removed and the pellet was collected.
[Cell lysis and Sample preparation] lysis buffer was prepared as follows: RIPA buffer (Biosesang, RC2038-050-00), 0.5 mM PMSF (SIGMA, P7626) and 1× Protease/Phosphatase Inhibitor (Cell signaling, 5872S) were added at 60-70 μL per well and left on ice for 30 minutes. (Vortexing at 0 and 30 minutes, respectively), followed by sonication (10 seconds pulse, 30 seconds rest, 5 cycles, 70% amplification) and centrifuge (15000 g, 15 min, 4° C.). Only the supernatant was collected and transferred to a new microtube. The samples were diluted by ½ with RIPA buffer in a 96-well plate. 200 μL of the mixture A:B=50:1 of the BCA Protein Assay Kit (iNtRON, 21071) was added each, stayed at 37° C. for 30 minutes, and cooled for 10 minutes. Afterwards, absorbance was measured at 562 nm using BioTek's SYNERGY H1 microplate reader. After making a sample by quantifying the protein using the measured value, it was boiled at 70° C. for 10 minutes. The sample buffer used at this time was a mixture of NuPAGE or Bolt 4× sample buffer (Invitrogen) and each 10× sample reducing agent according to the gel to be used. RIPA buffer was used for protein dilution.
[Western blotting detection method] The same amount of sample was loaded on NuPAGE or Bolt Bis-tris 4-12% gradient gel and run (200 V, 35 minutes). It was transferred to a […] NC membrane using Trans-blot Turbo (BIO-RAD) (1.3 A constant, 25 V limit, 15 minutes). For blocking, skim milk or Intercept Blocking Buffer (LI-COR, 927-60001): 0.1% TBST=1:1 was used at room temperature for 1 hour. Anti BTK Rabbit (1:1,000 in 5% skim milk/0.2% TBST, size: 77 kDa, Cell signaling Technology) was reacted at 4° C. for 16 hours or at room temperature for 2 hours. Anti GAPDH Rabbit (1:10,000 in 5% BSA/0.2% TBST, size: 36 kDa, GENETEX) and Anti β-actin mouse (1:10,000 in 5% BSA/0.2% TBST, RT, size: 43 kDa, GENETEX) were reacted at room temperature for 1 hour or 3 hours. The samples were washed 3 times with 0.5% TBST for 5 minutes each. Secondary antibodies, Anti-Rabbit IgG (1:5,000 in 5% Skim milk/TBST, CST), IRDye® 800CW Goat anti-Rabbit IgG Secondary Antibody (1:10,000 in 5% skim/TBST, RT 45 min), IRDye® 680RD Goat anti-Mouse IgG Secondary Antibody (1:10,000 in 5% skim/TBST, RT 45 min) were added depending on each sample and reacted for 45 minutes on a rocker at room temperature. The samples were washed 5 times with 0.5% TBST for 5 minutes each and detected with LI-COR's Odyssey. At this time, BTK was detected using SuperSignal West Pico PLUS Chemiluminescent Substrate or SuperSignal West femto Maximum Sensitivity Substrate, and house-keeping genes were detected as is.
(In general: A western blot detects proteins with antibodies after separation by electrophoresis.)

T1 sequence (Q06187 whole entry): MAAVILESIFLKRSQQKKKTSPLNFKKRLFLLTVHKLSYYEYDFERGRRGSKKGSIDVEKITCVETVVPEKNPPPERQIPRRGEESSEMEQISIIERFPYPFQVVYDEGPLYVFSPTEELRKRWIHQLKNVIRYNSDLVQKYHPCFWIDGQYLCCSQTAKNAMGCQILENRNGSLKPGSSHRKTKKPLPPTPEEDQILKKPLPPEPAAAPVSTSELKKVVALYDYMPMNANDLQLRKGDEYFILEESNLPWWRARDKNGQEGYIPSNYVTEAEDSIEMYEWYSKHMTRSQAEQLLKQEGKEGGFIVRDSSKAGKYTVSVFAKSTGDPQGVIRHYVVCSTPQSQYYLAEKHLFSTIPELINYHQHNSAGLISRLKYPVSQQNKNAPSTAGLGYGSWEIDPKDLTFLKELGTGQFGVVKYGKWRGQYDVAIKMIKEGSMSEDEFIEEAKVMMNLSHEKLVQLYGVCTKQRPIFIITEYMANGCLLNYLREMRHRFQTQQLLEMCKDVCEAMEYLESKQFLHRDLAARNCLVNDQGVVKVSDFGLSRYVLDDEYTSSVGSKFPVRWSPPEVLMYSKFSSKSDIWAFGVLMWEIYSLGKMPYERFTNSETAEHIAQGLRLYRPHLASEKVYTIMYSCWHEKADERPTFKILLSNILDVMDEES

With `Cc1cc(-c2ccnc(Nc3ccc4c(c3)CN(CC3CCN(c5ccc6c(c5)C(=O)N(C5CCC(=O)NC5=O)C6=O)CC3)CC4)n2)ccc1CNC(=O)N1CC(OC(C)C)C1` (stereo not drawn) [Example 1, N-(4-(2-((2-((1-(2-(2,6-dioxopiperidin-3-yl)-1,3-dioxoisoindolin-5-yl)piperidin-4-yl)methyl)-1,2,3,4-tetrahydroisoquinolin-7-yl)amino)pyrimidin-4-yl)-2-methylbenzyl)-3-isopropoxyazetidine-1-carboxamide], the “BTK degradation (%) 10 nM” value was determined as 92% and the “BTK degradation (%) 100 nM” value was 97.5%.
The corresponding values for `Cc1cc(-c2ccnc(Nc3ccc4c(c3)CN(CC3CCN(c5ccc6c(c5)C(=O)N(C5CCC(=O)NC5=O)C6=O)CC3)CC4)n2)ccc1CNC(=O)c1cnn(C(C)(C)C)c1` (stereo not drawn) [Example 2, 1-(tert-butyl)-N-(4-(2-((2-((1-(2-(2,6-dioxopiperidin-3-yl)-1,3-dioxoisoindolin-5-yl)piperidin-4-yl)methyl)-1,2,3,4-tetrahydroisoquinolin-7-yl)amino)pyrimidin-4-yl)-2-methylbenzyl)-1H-pyrazole-4-carboxamide] are 84.5% and 94%.
The corresponding values for `Cc1cc(-c2ccnc(Nc3ccc4c(c3)CN(CC3CCN(c5ccc6c(c5)C(=O)N(C5CCC(=O)NC5=O)C6=O)CC3)CC4)n2)ccc1CNC(=O)c1cn(C(C)(C)C)nn1` (stereo not drawn) [Example 3, 1-(tert-butyl)-N-(4-(2-((2-((1-(2-(2,6-dioxopiperidin-3-yl)-1,3-dioxoisoindolin-5-yl)piperidin-4-yl)methyl)-1,2,3,4-tetrahydroisoquinolin-7-yl)amino)pyrimidin-4-yl)-2-methylbenzyl)-1H-1,2,3-triazole-4-carboxamide] are 84% and 93%.
The corresponding values for `Cc1c(NC(=O)N2CC(OC(C)C)C2)cc(F)cc1-c1ccnc(Nc2ccc3c(c2)CN(CC2CCN(c4ccc5c(c4)C(=O)N(C4CCC(=O)NC4=O)C5=O)CC2)CC3)n1` (stereo not drawn) [Example 4, N-(3-(2-((2-((1-(2-(2,6-dioxopiperidin-3-yl)-1,3-dioxoisoindolin-5-yl)piperidin-4-yl)methyl)-1,2,3,4-tetrahydroisoquinolin-7-yl)amino)pyrimidin-4-yl)-5-fluoro-2-methylphenyl)-3-isopropoxyazetidine-1-carboxamide] are −3.5% and 29%.
In the case of `Cc1c(NC(=O)c2cnn(C(C)(C)C)c2)cc(F)cc1-c1ccnc(Nc2ccc3c(c2)CN(CC2CCN(c4ccc5c(c4)C(=O)N(C4CCC(=O)NC4=O)C5=O)CC2)CC3)n1` (stereo not drawn) [Example 5, 1-(tert-butyl)-N-(3-(2-((2-((1-(2-(2,6-dioxopiperidin-3-yl)-1,3-dioxoisoindolin-5-yl)piperidin-4-yl)methyl)-1,2,3,4-tetrahydroisoquinolin-7-yl)amino)pyrimidin-4-yl)-5-fluoro-2-methylphenyl)-1H-pyrazole-4-carboxamide], the “BTK degradation (%) 10 nM” value is given as −12% and the “BTK degradation (%) 100 nM” value was −7%.
As to `Cc1c(NC(=O)c2cn(C(C)(C)C)nn2)cc(F)cc1-c1ccnc(Nc2ccc3c(c2)CN(CC2CCN(c4ccc5c(c4)C(=O)N(C4CCC(=O)NC4=O)C5=O)CC2)CC3)n1` (stereo not drawn) [Example 6, 1-(tert-butyl)-N-(3-(2-((2-((1-(2-(2,6-dioxopiperidin-3-yl)-1,3-dioxoisoindolin-5-yl)piperidin-4-yl)methyl)-1,2,3,4-tetrahydroisoquinolin-7-yl)amino)pyrimidin-4-yl)-5-fluoro-2-methylphenyl)-1H-1,2,3-triazole-4-carboxamide], the “BTK degradation (%) 10 nM” value was −2.5% and the “BTK degradation (%) 100 nM” value amounted to 10%.
The corresponding values for `Cc1cc(-c2ccnc(Nc3ccc(N4CCN(CC5CCN(c6ccc7c(c6)C(=O)N(C6CCC(=O)NC6=O)C7=O)CC5)CC4)cc3)n2)ccc1CNC(=O)N1CC(OC(C)C)C1` (stereo not drawn) [Example 7, N-(4-(2-((4-(4-((1-(2-(2,6-dioxopiperidin-3-yl)-1,3-dioxoisoindolin-5-yl)piperidin-4-yl)methyl)piperazin-1-yl)phenyl)amino)pyrimidin-4-yl)-2-methylbenzyl)-3-isopropoxyazetidine-1-carboxamide] are 90% and 98.5%.
Take `Cc1cc(-c2ccnc(Nc3ccc(N4CCN(CC5CCN(c6ccc7c(c6)C(=O)N(C6CCC(=O)NC6=O)C7=O)CC5)CC4)cc3)n2)ccc1CNC(=O)c1cnn(C(C)(C)C)c1` (stereo not drawn) [Example 8, 1-(tert-butyl)-N-(4-(2-((4-(4-((1-(2-(2,6-dioxopiperidin-3-yl)-1,3-dioxoisoindolin-5-yl)piperidin-4-yl)methyl)piperazin-1-yl)phenyl)amino)pyrimidin-4-yl)-2-methylbenzyl)-1H-pyrazole-4-carboxamide]: the “BTK degradation (%) 10 nM” value was determined as 89.5% and the “BTK degradation (%) 100 nM” value turned out to be 97.5%.
In the case of `Cc1cc(-c2ccnc(Nc3ccc(N4CCN(CC5CCN(c6ccc7c(c6)C(=O)N(C6CCC(=O)NC6=O)C7=O)CC5)CC4)cc3)n2)ccc1CNC(=O)c1cn(C(C)(C)C)nn1` (stereo not drawn) [Example 9, 1-(tert-butyl)-N-(4-(2-((4-(4-((1-(2-(2,6-dioxopiperidin-3-yl)-1,3-dioxoisoindolin-5-yl)piperidin-4-yl)methyl)piperazin-1-yl)phenyl)amino)pyrimidin-4-yl)-2-methylbenzyl)-1H-1,2,3-triazole-4-carboxamide], the “BTK degradation (%) 10 nM” value is given as 76.5% and the “BTK degradation (%) 100 nM” value is 96.5%.
Consider `Cc1cc(-c2ccnc(Nc3ccc(N4CCN(CC5CCN(c6ccc7c(n6)CN(C6CCC(=O)NC6=O)C7=O)CC5)CC4)cc3)n2)ccc1CNC(=O)N1CC(OC(C)C)C1` (stereo not drawn) [Example 10, N-(4-(2-((4-(4-((1-(6-(2,6-dioxopiperidin-3-yl)-5-oxo-6,7-dihydro-5H-pyrrolo[3,4-b]pyridin-2-yl)piperidin-4-yl)methyl)piperazin-1-yl)phenyl)amino)pyrimidin-4-yl)-2-methylbenzyl)-3-isopropoxyazetidine-1-carboxamide], for which the “BTK degradation (%) 1 nM” value is on record as 56%, the “BTK degradation (%) 10 nM” value stood at 94.5% and the “BTK degradation (%) 100 nM” value is 98.5%.
The corresponding values for `Cc1cc(-c2ccnc(Nc3ccc(N4CCN(CC5CN(c6ccc7c(c6)C(=O)N(C6CCC(=O)NC6=O)C7=O)C5)CC4)cc3)n2)ccc1CNC(=O)N1CC(OC(C)C)C1` (stereo not drawn) [Example 11, N-(4-(2-((4-(4-((1-(2-(2,6-dioxopiperidin-3-yl)-1,3-dioxoisoindolin-5-yl)azetidin-3-yl)methyl)piperazin-1-yl)phenyl)amino)pyrimidin-4-yl)-2-methylbenzyl)-3-isopropoxyazetidine-1-carboxamide] are 60%, 93.5% and 98.5%.
